Data set [1] has as its system Human peripheral blood mononuclear cells. The data set is described as follows: Human Concanavalin-A Proliferation Assay (Con HU Assay). It counts as cell-based. As to conditions: Homo sapiens, PBMC, concanavalin-A stimulated human PBMC; for inhibition at 100 µM / inhibition at 1 µM / inhibition at 10 µM: 72 h, 3 days, read-out: % Inhibition of proliferation (at concentrations of 1,10, or 100 μm); for inhibition at 100 µM: concentration 100 μm (in parentheses in the cell); for pIC50: tritiated thymidine; for inhibition at 1 µM: concentration 1 μm (in parentheses in the cell); for inhibition at 10 µM: concentration 10 μm (in parentheses in the cell). The procedure, abridged: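 Histopaque-isolated human PBMC (50,000/well) were pre-incubated 15 min with compounds, then stimulated with concanavalin-A at 2.5 μg/ml final for 3 days at 37 °C, 5% CO2. Proliferation measured by 6 h pulse with 0.5 μCi/well [3H]thymidine and beta counting.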

Data on eleven molecules can be found in patent US20010044445A1, “AZOLE INHIBITORS OF CYTOKINE PRODUCTION” (priority 1999, published 2001).

Molecules are shown by their SMILES. pIC50: −log10 of the molar value.

`Cc1noc(C)c1C(=O)Nc1ccc(-n2nc(C(F)(F)F)cc2C(F)(F)F)c(Cl)c1` [Example 277, N-[4-[3,5-bis(trifluoromethyl)-1H-pyrazol-1-yl]-3-chlorophenyl]-3,5-dimethyl-4-isoxazolecarboxamide] showed a melting point of 64 to 65 °C. For the same molecule, in data set [1], the inhibition at 100 µM is 99% and the pIC50 was 5.97.
`O=C(Nc1ccc(-n2nc(C(F)(F)F)cc2C(F)(F)F)c(C(F)(F)F)c1)c1ccc(Cl)cc1` [Example 271, N-[4-[3,5-bis(trifluoromethyl)-1H-pyrazol-1-yl]-3-(trifluoromethyl)phenyl]-4-chlorobenzamide] came in with a melting point of 65 to 67 °C. In addition, the inhibition at 1 µM in data set [1] is 14%.
In turn, `CSc1cc(C(F)(F)F)nn1-c1ccc(NC(=O)c2cccnc2F)cc1` [Example 316, 2-fluoro-N-(4-(5-(methylsulfanyl)-3-(trifluoromethyl)-1H-pyrazol-1-yl)phenyl)nicotinamide] returned a melting point of 167 to 168 °C. The molecule also showed a pIC50 in data set [1] of 7.39.
As for `O=C(Nc1ccc(-n2nc(C(F)(F)F)cc2C(F)(F)F)cc1)C1CC1` [Example 1, N-[4-[3,5-bis(trifluoromethyl)-1H-pyrazol-1-yl]phenyl]cyclopropanecarboxamide], the melting point lay in the range of 204 to 205 °C. For the same molecule, the inhibition at 1 µM in data set [1] was found to be 68%.
`O=C(Cc1ccc(Cl)cc1)Nc1ccc(-n2nc(C(F)(F)F)cc2C(F)(F)F)cc1` [Example 169, N-[4-[3,5-bis(trifluoromethyl)-1H-pyrazol-1-yl]phenyl]-4-chlorobenzeneacetamide]: the melting point was in the range of 122 to 124 °C. Also, the inhibition at 1 µM in data set [1] turned out to be 2%.
The molecule `O=C(Nc1ccc(-n2nc(C(F)(F)F)cc2C(F)(F)F)cc1)Nc1ccc([N+](=O)[O-])cc1Cl` [Example 41, N-[4-[3,5-bis(trifluoromethyl)-1H-pyrazol-1-yl]phenyl]-N′-(2-chloro-4-nitrophenyl)urea] had a melting point of 229 to 230 °C. Moreover, in data set [1], the inhibition at 10 µM came out at 100% and the pIC50 was 6.46.
For `Cc1oncc1C(=O)Nc1ccc(-n2nc(C(F)(F)F)cc2C(F)(F)F)cc1` [Example 184, N-[4-[3,5-bis(trifluoromethyl)-1H-pyrazol-1-yl]phenyl]-5-methyl-4-isoxazolecarboxamide], in that order: 163 to 167 °C, 90% and 6.38.
`Cc1cc(-n2nc(C(F)(F)F)cc2C(F)(F)F)ccc1NC(=O)c1snnc1C` [Example 279, N-[4-[3,5-bis(trifluoromethyl)-1H-pyrazol-1-yl]-2-methylphenyl]-4-methyl-1,2,3-thiadiazole-5-carboxamide] had a melting point of 196 to 197 °C. Further, the inhibition at 1 µM in data set [1] amounted to 6%.
On the same counts, the results for `COc1cc(C(=O)Nc2ccc(-n3nc(C(F)(F)F)cc3C(F)(F)F)cc2)cs1` [Example 259, N-[4-[3,5-bis(trifluoromethyl)-1H-pyrazol-1-yl]phenyl]-5-methoxy-3-thiophenecarboxamide] are 213 to 214 °C and 5%.
`O=C(Nc1ccc(-n2nc(C(F)(F)F)cc2C(F)(F)F)cc1)Nc1cccc([N+](=O)[O-])c1` [Example 31, N-[4-[3,5-bis(trifluoromethyl)-1H-pyrazol-1-yl]phenyl]-N′-(3-nitrophenyl)urea]: the melting point is 203 to 204 °C. Further, in data set [1], the inhibition at 100 µM was 100% and the negative-log IC50 (pIC50) was 5.39.
`O=C(Nc1ccc(-n2nc(C(F)(F)F)cc2C(F)(F)F)cc1)c1c(F)ccc([N+](=O)[O-])c1F` [Example 230, N-[4-[3,5-bis(trifluoromethyl)-1H-pyrazol-1-yl]phenyl]-2,6-difluoro-3-nitrobenzamide] displayed a melting point of 187 to 189 °C. In addition, the inhibition at 1 µM in data set [1] amounted to 64%.
